# Calls of active or inactive are those of the source. The rule behind the calls is not given here.
# Experiment: Quorum luxo inducers, light production, v cholerae bh1651 luxod47e, confirmatory dose response (AID 624254)
# Conditions: V. cholerae BH1651 luxOD47E, luciferase light induction, 6 h; at 50 µM (top of the series)
row,SMILES,activation (light increase)
1,CCS(=O)(=O)N1CCN(C(=O)CCC2CCCC2)CC1,inactive
2,CCOc1ccc(C(=O)OCC(=O)N2CCCC2)cc1,inactive
3,COc1ccccc1CCNC(=O)C(=O)NCCC1CCCCN1S(=O)(=O)c1cccs1 (configuration not stated),inactive
4,O=C(COC(=O)C1CCC1)Nc1ccc(Oc2ccccc2)cc1,inactive
5,COc1ccc(N2CCN(CC(=O)Nc3c(C)cc(C)cc3C)CC2)cc1,inactive
6,Cc1csc(NC(=O)Cc2nn(C)c(=O)c3ccccc23)n1,inactive
7,CCOc1ccc(CNc2nnnn2C)cc1,inactive
8,Cn1cnc(S(=O)(=O)Nc2ccccc2F)c1,inactive
9,COc1cccc(-c2nc(OC(C)C)c3ccccc3n2)c1,inactive
10,CCC1Nc2ncnc(N3CCN(c4ccccc4)CC3)c2N(Cc2ccccc2)C1=O (configuration not stated),inactive
11,CCn1c(SCC(=O)OC2CCCCC2)nnc1-c1ccncc1,inactive
12,Cc1ccc(-c2cc(C(=O)N3N=C(C(F)F)CC3(O)C(F)F)c3ccccc3n2)cc1C (configuration not stated),inactive
13,Cc1cccc(NC(=O)CS(=O)(=O)c2cn(C)c3ccccc23)c1C,inactive
14,O=C(NCCN1CCOCC1)c1cccc(NS(=O)(=O)c2ccc(Br)cc2)c1,inactive
15,CCCNC(=O)Cc1ccsc1,inactive
16,CS(=O)(=O)NNC(=O)c1sccc1OCc1ncc(C(F)(F)F)cc1Cl,inactive
17,COc1ccc2[nH]c(=O)c(CN(C(=O)c3cccnc3)c3ccc(C)cc3)cc2c1,inactive
18,CC(C)CC(=O)Nc1ccccc1N1CCN(C(=O)c2ccccc2)CC1,inactive
19,CC1CN(C(=O)COC(=O)c2cccc(NS(=O)(=O)c3ccccc3)c2)CC(C)O1 (configuration not stated),inactive
20,CCc1nnc(NC(=O)C2CC(=O)N(c3ccc(C)cc3)C2)s1 (configuration not stated),inactive
21,O=C(c1cc(-c2cccs2)nn1-c1ccccc1)N1CCN(S(=O)(=O)c2ccccc2)CC1,inactive
22,CNC(=O)c1cc2cc(OC)ccc2n1CCN(Cc1ccccc1)Cc1ccccc1,inactive

row,SMILES,activation (light increase)
1,O=C(c1cc(-c2ccc3c(c2)OCO3)on1)N1CCN(c2ccc(F)cc2)CC1,inactive
2,CCCn1nnnc1NCc1ccc(CC)cc1,inactive
3,COC(=O)c1c(-c2ccc(Br)cc2)noc1N,inactive
4,COC(=O)Nc1ccc(S(=O)(=O)NCCO)cc1,inactive
5,O=C(c1cccc(S(=O)(=O)N2CCc3ccccc32)c1)N1CCOCC1,inactive
6,O=S(=O)(Nc1ccccn1)c1ccccc1,inactive
7,CCc1ccc(C(=O)Nc2ccc(Br)cn2)cc1,inactive
8,CC(C#N)On1c(SC(C)C#N)nc2ccccc2c1=O (configuration not stated),inactive
9,CCOc1ccc2cc(C#N)c(SCC(=O)N3CCC(C)CC3)nc2c1,inactive
10,O=C(CCc1nc(-c2ccccc2)no1)N1CCCC1,inactive
11,O=C(COC(=O)/C=C/c1ccc(OC(F)F)cc1)NC1CCCCCC1,inactive
12,Cc1[nH]c2ccc3c(ncn3CCC#N)c2c1C,inactive
13,CCc1cccc(C)c1N(C(=O)Cn1c(CO)nc2ccccc21)C(C)COC (configuration not stated),inactive
14,O=C(O)c1[nH]c2ccccc2c1NS(=O)(=O)Cc1ccccc1,inactive
15,CCCCN(Cc1nc2ccccc2c(=O)[nH]1)C(=O)CN1C(=O)NC2(CCCCC2)C1=O,inactive
16,O=C(Oc1ccnc2cc(Cl)ccc12)N1CCCCCC1,inactive
17,COc1ccccc1CNC(=O)c1ccc(S(=O)(=O)N(C)c2ccccc2)cc1,inactive
18,CCCOc1ccc(-c2nc(C#N)c(N3CCN(CC)CC3)o2)cc1,inactive
19,NC(=O)c1cc(Br)cc(C2CCCCC2)c1O,inactive
20,CC(OC(=O)c1ccc(-n2cnnn2)cc1)C(=O)N(C)c1ccccc1 (configuration not stated),inactive
21,NNC(=O)c1nnn(-c2nonc2N)c1CN1CCCC1,inactive
22,COC(=O)c1[nH]c2ccc(C)cc2c1NC(=O)Nc1ccc(OC)cc1,inactive

row,SMILES,activation (light increase)
1,Cc1noc(C)c1NC(=O)Nc1cccc2c1O[C@H](CN(C)S(=O)(=O)c1cccs1)[C@@H](C)CN([C@H](C)CO)C2=O,inactive
2,CCCn1nnnc1NCc1ccc(OC)cc1OC,inactive
3,Cc1ccccc1-n1nnnc1-c1ccccc1,inactive
4,COc1cc(SC)ccc1C(=O)OCC(=O)NCC(C)C,inactive
5,COCCNC(=O)c1cnn2c1NC(c1ccco1)CC2C(F)(F)F (configuration not stated),inactive
6,COc1ccc(NC(=O)C(=O)NCC2CCCN2S(=O)(=O)c2ccc(C)cc2)cc1 (configuration not stated),inactive
7,CCOc1ccc(/C(O)=C2/C(=O)C(=O)N(CCOCCO)C2c2ccccn2)cc1 (configuration not stated),inactive
8,CC(=O)Nc1ccccc1NS(=O)(=O)c1cn(C)cn1,inactive
9,O=C(O)c1cn[nH]c1-n1cnnn1,inactive
10,Cc1noc(C)c1NC(=O)Nc1cccc2c1O[C@@H](CN(C)S(=O)(=O)c1cccs1)[C@@H](C)CN([C@@H](C)CO)C2=O,inactive
11,Cc1noc(C)c1NC(=O)Nc1cccc2c1O[C@@H](CN(C)S(=O)(=O)c1cccs1)[C@@H](C)CN([C@H](C)CO)C2=O,inactive
12,CC(=O)Nc1ccc(S(=O)(=O)NCCC(=O)OCC(=O)c2cc(C)ccc2C)cc1,inactive
13,CC(C)N1CCc2c(sc(NC(=O)c3ccc4ccccc4c3)c2C(N)=O)C1,inactive
14,COc1cc(OC)c(OC)cc1CNC(C)C(O)c1ccccc1 (configuration not stated),inactive
15,C=Cn1c(C(=O)O)ccc1-c1cccs1,inactive
16,CCn1c(CC(=O)Nc2cccc(Cl)c2Cl)nnc1SCCOc1ccc(OC)cc1,inactive
17,CCC(C)NC(=O)Cc1ccc(-c2ccccc2)cc1 (configuration not stated),inactive
18,Cc1ccc(C(=O)OCC(=O)Nc2ccccc2)cc1NC(=O)c1ccco1,inactive
19,COc1ccccc1NS(=O)(=O)c1cccc(C(=O)NCC(c2ccco2)N2CCCCC2)c1 (configuration not stated),inactive
20,COc1cc(NC(=O)CN2C(=O)NC(c3ccccc3)(c3ccccc3)C2=O)cc(OC)c1,inactive
21,CCOC(=O)N1CCC(NC(=O)C2CCN(C(=O)N3CC(C)Oc4ccc(C)cc43)CC2)CC1 (configuration not stated),inactive
22,CCCCNC(=O)CN(c1cccc(Br)c1)S(C)(=O)=O,inactive

row,SMILES,activation (light increase)
1,OCCN1CCN(CC(O)COc2ccc(Cl)cc2)CC1 (configuration not stated),inactive
2,Cn1cnc(S(=O)(=O)Nc2ccc(OC(C)(C)C)cc2)c1,inactive
3,COC(=O)c1ccc(CSc2nnc3c(Cl)cc(Cl)cn23)o1,inactive
4,Cc1ccc(CN2C(=O)CCC2C(=O)NCCN(CC(C)C)CC(C)C)cc1 (configuration not stated),inactive
5,Cc1ncc(S(=O)(=O)c2ccccc2)c(-c2ccc(Cl)cc2Cl)n1,inactive
6,O=C(Oc1ccc(=O)n(-c2ccccc2)n1)c1cccc(Cl)c1,inactive
7,CCN(CC)c1nc(-c2ccccc2)cc(C(F)(F)F)c1C#N,inactive
8,CCOCCCNC(=O)C(NC(=O)CNC(=O)c1ccccc1)c1ccccc1 (configuration not stated),inactive
9,Cn1ccnc1S(=O)(=O)Nc1ccc(OC(F)(F)F)cc1,inactive
10,Cn1cnc(S(=O)(=O)Nc2ccc(Cl)cc2)c1,inactive
11,CCOC(=O)C1(CCOc2ccccc2)CCN(Cc2cc(OC)cc(OC)c2)CC1,inactive
12,Cc1cc(C(=O)OCC(=O)NC2CCCCC2)c(C)o1,inactive
13,CCOC(=O)C1CCN(C(=O)C2c3ccccc3C(=O)N(C)C2c2ccc(OC)cc2)CC1 (configuration not stated),inactive
14,C[C@H]1CN([C@@H](C)CO)C(=O)c2cccc(NC(=O)Nc3ccc4c(c3)OCO4)c2O[C@H]1CN(C)S(=O)(=O)c1ccccc1,inactive
15,COCCNC(=O)CN1CCN(C(c2ccccc2)c2ccccc2)CC1,inactive
16,Cc1noc(C)c1NC(=O)Nc1cccc2c1O[C@@H](CN(C)S(=O)(=O)c1cccs1)[C@H](C)CN([C@@H](C)CO)C2=O,inactive
17,Cc1ccc(N(C(C)C(=O)N2CCCCC2)S(C)(=O)=O)cc1C (configuration not stated),inactive
18,COc1ccc(S(=O)(=O)N2CCOCC2)cc1NC(=O)CSc1nnc(C2CC2)n1C1CC1,inactive
19,CCN1CCCC1CNC(=O)c1cc(OC)c(OC)c(OC)c1 (configuration not stated),inactive
20,Cc1ccc(OCCNC(=O)c2ccco2)cc1C,inactive
21,Clc1ccc(-c2cc(COc3ccc4ccccc4c3)no2)cc1,inactive

# From PubChem BioAssay AID624254 (Broad Institute, 2012)
